Source: ChEMBL document CHEMBL1275528, “RamA confers multidrug resistance in Salmonella enterica via increased expression of acrB, which is inhibited by chlorpromazine” (2008)
≈ marks a conversion by molar mass, not a printed value.

Assays:
Conditions in all cases: Salmonella enterica
[1] = Antimicrobial activity against Salmonella serovar Typhimurium SL1344 expressing ramA::aph-pTRC hisA:ramA mutant by broth dilution method; format: functional
[2] = Antimicrobial activity against Salmonella serovar Typhimurium SL1344 expressing ramA::aph-pTRC hisA:ramA mutant by broth dilution method in presence of IPTG; format: functional
[3] = Antimicrobial activity against Salmonella serovar Typhimurium SL1344 expressing ramA::aph-pTRC hisA:ramA mutant by broth dilution method in presence of chlorpromzine; format: functional
[4] = Antimicrobial activity against Salmonella serovar Typhimurium SL1344 expressing ramA::aph mutant by broth dilution method; format: functional
[5] = Antimicrobial activity against Salmonella serovar Typhimurium SL1344 by broth dilution method; format: functional
Salmonella typhimurium [6] = experiment: Antimicrobial activity against Salmonella serovar Typhimurium LT2 by broth dilution method; format: functional, Salmonella enterica subsp. enterica serovar Typhimurium
[7] = Antimicrobial activity against Salmonella serovar Haifa 9878 by broth dilution method; format: functional, Salmonella enterica subsp. enterica serovar Haifa
[8] = Antimicrobial activity against Salmonella serovar Virchow 5742 by broth dilution method; format: functional, Salmonella enterica subsp. enterica serovar Virchow
[9] = Antimicrobial activity against Salmonella serovar Newport 129 by broth dilution method; format: functional, Salmonella enterica subsp. enterica serovar Newport
[10] = Antimicrobial activity against Salmonella serovar Typhimurium SL1344 by broth dilution method in presence of chlorpromazine; format: functional
Salmonella typhimurium [11] = experiment: Antimicrobial activity against Salmonella serovar Typhimurium 14028S by broth dilution method; format: functional, Salmonella enterica subsp. enterica serovar Typhimurium
[12] = Antimicrobial activity against Salmonella serovar Binza 8269 by broth dilution method; format: functional, Salmonella enterica subsp. enterica serovar Binza
Salmonella enteritidis = experiment: Antimicrobial activity against Salmonella serovar Enteritidis 5188 by broth dilution method; format: functional, Salmonella enterica subsp. enterica serovar Enteritidis
[13] = Antimicrobial activity against Salmonella serovar Montevideo 5747 by broth dilution method; format: functional, Salmonella enterica subsp. enterica serovar Montevideo
[14] = Antimicrobial activity against Salmonella serovar Mbandaka 7892 by broth dilution method; format: functional, Salmonella enterica subsp. enterica serovar Mbandaka
[15] = Antimicrobial activity against Salmonella serovar Heidelberg 5171 by broth dilution method; format: functional, Salmonella enterica subsp. enterica serovar Heidelberg
[16] = Antimicrobial activity against Salmonella serovar Kedougou by broth dilution method; format: functional, Salmonella enterica subsp. enterica serovar Kedougou
[17] = Antimicrobial activity against Salmonella serovar Hadar by broth dilution method; format: functional, Salmonella enterica subsp. enterica serovar Hadar
[18] = Antimicrobial activity against Salmonella serovar Typhimurium SL1344 expressing tolC::aph mutant by broth dilution method; format: functional
[19] = Antimicrobial activity against Salmonella serovar Typhimurium SL1344 expressing acrB::aph mutant by broth dilution method; format: functional
[20] = Antimicrobial activity against Salmonella serovar Typhimurium SL1344 expressing marA::aph mutant by broth dilution method; format: functional
[21] = Antimicrobial activity against Salmonella serovar Typhimurium SL1344 expressing acrD::aph mutant by broth dilution method; format: functional
[22] = Antimicrobial activity against Salmonella serovar Typhimurium SL1344 expressing soxS::aph mutant by broth dilution method; format: functional
[23] = Antimicrobial activity against Salmonella serovar Typhimurium SL1344 expressing acrF::aph mutant by broth dilution method; format: functional

| SMILES | MIC [1] | MIC [2] | MIC [3] | MIC [4] | MIC [5] | MIC [10] | MIC [18] | MIC [19] | MIC [20] | MIC [21] | MIC [22] | MIC [23] | also measured |
| --- | --- | --- | --- | --- | --- | --- | --- | --- | --- | --- | --- | --- | --- |
| CCn1cc(C(=O)O)c(=O)c2ccc(C)nc21 [NALIDIXIC ACID] | 16 µg/mL (≈ 68.9 µM) | 64 µg/mL | 16 µg/mL | 4 µg/mL (≈ 17.2 µM) | 4 µg/mL (≈ 17.2 µM) |  |  |  |  |  |  |  |  |
| CCn1cc(C(=O)O)c(=O)c2cc(F)c(N3CCNCC3)cc21 [NORFLOXACIN] | 0.25 µg/mL (≈ 0.783 µM) | 0.25 µg/mL | 0.25 µg/mL | 0.25 µg/mL (≈ 0.783 µM) | 0.06 µg/mL (≈ 0.188 µM) | 0.008 µg/mL |  |  |  |  |  |  | MIC (Salmonella typhimurium [6]): 0.06 µg/mL (≈ 0.188 µM); MIC [7]: 0.06 µg/mL (≈ 0.188 µM); MIC [8]: 0.06 µg/mL (≈ 0.188 µM); MIC [9]: 0.06 µg/mL (≈ 0.188 µM); MIC (Salmonella typhimurium [11]): 0.06 µg/mL (≈ 0.188 µM); MIC [12]: 0.06 µg/mL (≈ 0.188 µM); MIC (Salmonella enteritidis): 0.06 µg/mL (≈ 0.188 µM); MIC [13]: 0.06 µg/mL (≈ 0.188 µM); MIC [14]: 0.06 µg/mL (≈ 0.188 µM); MIC [15]: 0.06 µg/mL (≈ 0.188 µM); MIC [16]: 0.06 µg/mL (≈ 0.188 µM); MIC [17]: 0.06 µg/mL (≈ 0.188 µM) |
| CO[C@@H]1[C@@H](OC(N)=O)[C@@H](O)[C@H](Oc2ccc3c(O)c(NC(=O)c4ccc(O)c(CC=C(C)C)c4)c(=O)oc3c2C)OC1(C)C [NOVOBIOCIN] | 512 µg/mL (≈ 836 µM) | 1020 µg/mL | 512 µg/mL | 256 µg/mL (≈ 418 µM) | 512 µg/mL (≈ 836 µM) | 64 µg/mL |  |  |  |  |  |  |  |
| Cc1ccccc1C(OCCN(C)C)c1ccccc1 (centres undefined) [ORPHENADRINE] |  |  |  | 1020 µg/mL (≈ 3800 µM) | 1020 µg/mL (≈ 3800 µM) |  | 1020 µg/mL (≈ 3800 µM) | 1020 µg/mL (≈ 3800 µM) | 1020 µg/mL (≈ 3800 µM) | 1020 µg/mL (≈ 3800 µM) | 1020 µg/mL (≈ 3800 µM) | 1020 µg/mL (≈ 3800 µM) |  |
| CN(C)[C@@H]1C(O)=C(C(N)=O)C(=O)[C@@]2(O)C(O)=C3C(=O)c4c(O)cccc4[C@@](C)(O)[C@H]3C[C@@H]12 [TETRACYCLINE] | 4 µg/mL (≈ 9 µM) | 16 µg/mL | 8 µg/mL | 2 µg/mL (≈ 4.5 µM) | 2 µg/mL (≈ 4.5 µM) | 0.25 µg/mL |  |  |  |  |  |  |  |
| CSc1ccc2c(c1)N(CCC1CCCCN1C)c1ccccc1S2 (centres undefined) [THIORIDAZINE] |  |  |  | 1020 µg/mL (≈ 2760 µM) | 1020 µg/mL (≈ 2760 µM) |  | 32 µg/mL (≈ 86.3 µM) | 32 µg/mL (≈ 86.3 µM) | 1020 µg/mL (≈ 2760 µM) | 1020 µg/mL (≈ 2760 µM) | 1020 µg/mL (≈ 2760 µM) | 1020 µg/mL (≈ 2760 µM) |  |
| Oc1cc(Cl)ccc1Oc1ccc(Cl)cc1Cl [TRICLOSAN] | 0.25 µg/mL (≈ 0.863 µM) | 1 µg/mL | 0.25 µg/mL | 0.12 µg/mL (≈ 0.414 µM) | 0.12 µg/mL (≈ 0.414 µM) |  |  |  |  |  |  |  |  |
| CN1CCN(CCCN2c3ccccc3Sc3ccc(C(F)(F)F)cc32)CC1 [TRIFLUOPERAZINE] |  |  |  | 1020 µg/mL (≈ 2510 µM) | 1020 µg/mL (≈ 2510 µM) |  | 32 µg/mL (≈ 78.5 µM) | 64 µg/mL (≈ 157 µM) | 1020 µg/mL (≈ 2510 µM) | 1020 µg/mL (≈ 2510 µM) | 1020 µg/mL (≈ 2510 µM) | 1020 µg/mL (≈ 2510 µM) |  |
